Publication PMC9629705, “Canonical strigolactones are not the major determinant of tillering but important rhizospheric signals in rice” (Science Advances, 2022)
pIC50: −log10 of the molar value.

Experiments:
OsMAX1-900 = molecular target: T1, OsMAX1-900 (Oryza sativa, UniProt M9R6D3); assay: LC-MS/MS enzyme assay (CL to CLA, CLA to 4DO) with microsomes of yeast overexpressing the enzyme; type: biochemical
T1 construct: gene Os01g0700900
T1 sequence (M9R6D3 1-539): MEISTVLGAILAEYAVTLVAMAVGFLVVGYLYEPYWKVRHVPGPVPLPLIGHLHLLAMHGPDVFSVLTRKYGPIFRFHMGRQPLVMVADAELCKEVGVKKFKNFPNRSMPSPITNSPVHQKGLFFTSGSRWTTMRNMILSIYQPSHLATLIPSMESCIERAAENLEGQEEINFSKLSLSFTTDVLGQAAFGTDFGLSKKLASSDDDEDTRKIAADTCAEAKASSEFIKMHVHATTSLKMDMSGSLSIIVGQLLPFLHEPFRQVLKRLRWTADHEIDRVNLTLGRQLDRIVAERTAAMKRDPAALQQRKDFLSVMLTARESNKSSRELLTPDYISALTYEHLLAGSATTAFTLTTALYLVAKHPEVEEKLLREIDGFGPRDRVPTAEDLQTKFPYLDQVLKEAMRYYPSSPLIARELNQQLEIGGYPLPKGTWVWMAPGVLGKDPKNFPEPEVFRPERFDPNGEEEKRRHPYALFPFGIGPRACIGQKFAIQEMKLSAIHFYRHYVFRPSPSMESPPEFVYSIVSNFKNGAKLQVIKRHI

OsMAX1-1400 = molecular target: T2, OsMAX1-1400 (Oryza sativa, UniProt W5QV10); assay: LC-MS/MS enzyme assay (4DO to orobanchol) with microsomes of yeast overexpressing the enzyme; type: biochemical
T2 construct: gene Os01g0701400
T2 sequence (W5QV10 1-541): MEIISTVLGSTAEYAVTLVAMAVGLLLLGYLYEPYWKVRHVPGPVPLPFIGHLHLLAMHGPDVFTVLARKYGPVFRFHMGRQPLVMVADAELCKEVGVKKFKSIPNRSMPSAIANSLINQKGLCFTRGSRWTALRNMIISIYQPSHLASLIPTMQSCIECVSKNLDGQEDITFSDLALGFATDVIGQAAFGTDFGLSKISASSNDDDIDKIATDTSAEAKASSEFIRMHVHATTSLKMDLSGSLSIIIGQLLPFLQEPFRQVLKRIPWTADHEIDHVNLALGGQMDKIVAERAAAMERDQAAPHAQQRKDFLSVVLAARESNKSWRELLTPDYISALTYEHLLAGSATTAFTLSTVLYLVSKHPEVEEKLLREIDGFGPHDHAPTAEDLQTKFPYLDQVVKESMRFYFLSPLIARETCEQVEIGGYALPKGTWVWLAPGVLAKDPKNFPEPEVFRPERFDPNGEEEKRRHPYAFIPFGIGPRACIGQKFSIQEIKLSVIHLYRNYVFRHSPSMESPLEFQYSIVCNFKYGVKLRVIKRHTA

pIC50 (OsMAX1-900): 6.82 | pIC50 (OsMAX1-1400): 7.70
SMILES: O=C(c1ccccc1)C(CCCCOc1ccccc1)n1cncn1 (centres unmarked) [TIS108]
